Values after ≈ are worked out from the molar mass of the structure shown. Some results are limits rather than exact numbers.

Test [1] relates to Trypanosoma brucei brucei. Description: Antitrypanosomal activity against Trypanosoma brucei brucei S427 after 48 hrs by alamar blue assay. The note with it: S427, 48 h. Type of test: functional. For orientation: The colour change of resazurin is a common sign of viable cells or microbes.
In test [2] the test system is U-937. Briefly: Cytotoxicity against human U937 cells after 24 hrs by MTT assay. Type of test: functional, cell-based. As to conditions: U-937, 24 h; call rule not given here.
The test system of test [3] is K562. Briefly: Cytotoxicity against human K562 cells after 24 hrs by MTT assay. Format: functional, cell-based. A general note: Tetrazolium assays rely on reduction of a dye to a coloured formazan, in cell work by metabolically active cells.
Test [4] in a line: Inhibition of NF-kappaB activity in TNFalpha-stimulated human K562 cells after 24 hrs by luciferase reporter gene assay. The note with it: K562, 24 h. Type of test: cell-based.
Test [5] has as its system Jurkat. Briefly: Cytotoxicity against human Jurkat cells after 24 hrs by MTT assay. Format: functional, cell-based.
Where [6] appears, read: Homo sapiens, K562, 24 h, read-out: IC50.

In the case of `C[C@H]1CCC[C@H]2O[C@@H]2C(=O)c2c(O)cc(O)cc2CC(=O)O1`, the MIC – broadly, the least concentration at which growth counts as inhibited – in test [1] was over 100 µM.

Take `C[C@H]1CCC/C=C\C(=O)c2c(O)cc(O)cc2CC(=O)O1`: in test [1], the minimal inhibitory concentration (MIC) was over 100 µM.

In the case of `COc1cc(CO)cc2c1C(=O)c1c(O)cc(O)c(Cl)c1C2=O`, the IC50 (in general, the concentration needed to halve the response being measured) in test [2] is 22 µM; in test [3] (setting [6]), 40.1 µM; in test [4], 16 µM; in test [5], 28.4 µM. In test [1], this compound returned an MIC of 18.7 µM (≈ 6.26 µg/mL).

As for `COc1cc(C)cc2c1C(=O)c1c(O)cc(O)c(Cl)c1C2=O`, the IC50 is 7.6 µM in test [2], 24.8 µM in test [3] (setting [6]), 1.6 µM in test [4] and 13.3 µM in test [5]. The same compound returned an MIC in test [1] of 78.6 µM (≈ 25.1 µg/mL).

Turning to `COc1cc(C)cc2c1C(=O)c1c(O)cc(O)c(Cl)c1C2O` (configuration not stated), in test [1], the minimum inhibitory concentration (MIC) was determined as 9.75 µM (≈ 3.13 µg/mL).

`Cc1cc(=O)c2c(C)cc(O)cc2o1` yielded an MIC in test [1] of over 100 µM.

Turning to `COc1cc(C)cc2c1C(=O)c1c(O)cc(O)cc1C2=O` [1-O-METHYLEMODIN], the IC50 was 88.6 µM in test [2], “Not Active” in test [3] (k562), over 100 µM in test [4] and over 100 µM in test [5]. In addition, the minimal inhibitory concentration (MIC) in test [1] was determined as 11 µM (≈ 3.12 µg/mL).

As to `CO[C@H]1CCC[C@H](C)OC(=O)Cc2cc(O)cc(O)c2C(=O)C1` [11ALPHA-METHOXYCURVULARIN], the IC50 was 4.6 µM in test [2], 41.1 µM in test [3] (setting [6]), 10.1 µM in test [4] and 2.3 µM in test [5]. The same compound returned a minimal inhibitory concentration (MIC) in test [1] of 9.68 µM (≈ 3.12 µg/mL).

As to `CO[C@@H]1CCC[C@H](C)OC(=O)Cc2cc(O)cc(O)c2C(=O)C1` [11BETA-METHOXYCURVULARIN], the IC50 in test [2] worked out at 1.8 µM; in test [3] (setting [6]), 12.4 µM; in test [4], 4.7 µM; in test [5], 3.9 µM. The same compound registered an MIC in test [1] of 4.96 µM (≈ 1.6 µg/mL).

In test [1], `C=C1CC[C@@H]2C(C)(C)CCC[C@@]2(C)[C@@H]1CC/C(C)=C/Cn1c[n+](C)c2ncnc(N)c21` [AGELASINE D] had a minimal inhibitory concentration (MIC) of 14.8 µM.

Turning to `COc1cc(CO)cc2c1C(=O)c1c(O)cc(O)cc1C2=O` [CARVIOLIN], the IC50 in test [2] was over 100 µM; in test [3] (k562) it was “Not Active”; in test [4] it was over 100 µM; in test [5] it was over 100 µM. The compound further registered a minimal inhibitory concentration (MIC) in test [1] of 41.7 µM (≈ 12.5 µg/mL).

As for `C[C@H]1CCC/C=C/C(=O)c2c(O)cc(O)cc2CC(=O)O1` [DEHYDROCURVULARIN], the 50% inhibitory concentration (IC50) in test [2] stood at 2.5 µM; in test [3] (setting [6]), 37 µM; in test [4], 5.6 µM; in test [5], 5.5 µM. The same compound gave a minimal inhibitory concentration (MIC) in test [1] of over 100 µM.

`COc1cc(C)cc2c1C(=O)c1c(O)cc(O)c(Cl)c1[C@H]2[C@H]1c2cc(C)cc(OC)c2C(=O)c2c(O)cc(O)c(Cl)c21` [NEOBULGARONE E]: the IC50 is 47.6 µM in test [2], over 100 µM in test [3] (setting [6]), 46 µM in test [4] and 82.4 µM in test [5]. The compound further gave an MIC in test [1] of over 100 µM.

As to `COc1cc(C)cc2c1C(=O)c1c(O)cc(O)c(Cl)c1[C@H]2[C@H]1c2cc(CO)cc(OC)c2C(=O)c2c(O)cc(O)c(Cl)c21` [NEOBULGARONE G], the IC50 in test [2] was over 100 µM; in test [3] (k562), “Not Active”; in test [4] it was over 100 µM; in test [5] it was over 100 µM. In test [1], the minimal inhibitory concentration (MIC) was over 100 µM.

As for `C[S+]([O-])c1cccc2ccc(=O)oc12` (configuration not stated) [SULFIMARINE], in test [1], the MIC is over 100 µM.

In turn, `Cc1ccc(C(=O)Nc2ccc(S(=O)(=O)O)c3cc(S(=O)(=O)O)cc(S(=O)(=O)O)c23)cc1NC(=O)c1cccc(NC(=O)Nc2cccc(C(=O)Nc3cc(C(=O)Nc4ccc(S(=O)(=O)O)c5cc(S(=O)(=O)O)cc(S(=O)(=O)O)c45)ccc3C)c2)c1` [SURAMIN] had a minimum inhibitory concentration (MIC) in test [1] of 0.06 µM (≈ 0.0778 µg/mL).

In the case of `C/C=C/C=C/C(=O)C1=C(O)[C@@]2(C)[C@H]3C(C(=O)/C=C/C=C/C)=C(O)[C@@]4(C)[C@@H]1[C@]1(C)O[C@@]4(O)[C@@]3(C)O[C@@]12O` [TRICHODIMEROL], the half-maximal inhibitory concentration (IC50) was 16.5 µM in test [2], 74.4 µM in test [3] (setting [6]), 47.8 µM in test [4] and 28.5 µM in test [5]. In test [1], the MIC was 6.29 µM (≈ 3.12 µg/mL).

For the origin of these results see ChEMBL document CHEMBL1641368, “NF kappa B inhibitors and antitrypanosomal metabolites from endophytic fungus Penicillium sp. isolated from Limonium tubiflorum” (Bioorg Med Chem, 2011).
